{"source": "PubChem BioAssay AID1963974", "about": "(Molecular Pharmacology Branch, DTP, NCI, 2024)", "tested_on": "648629-189-R-J1-PDC spheroids with HUVEC/MSC, viability", "assay": "Anticancer human tumor 648629-189-R-J1-PDC patient-derived bladder carcinoma cell line growth inhibition [PI3K]", "conditions": "for pIC50: curve of first compound; for viability, T/C: stronger effect = lower value", "description": "Combinatorial screen of targeted agents with the PI3K inhibitors inavolisib, alpelisib, duvelisib, and copanlisib in multi-cell type tumor spheroids\nA high-throughput screen of multi-cell type tumor spheroids was designed to identify active combinations of targeted small molecules and PI3K pathway inhibitors. Complex spheroids include a stromal component modeled by human endothelial cells (HUVEC) and fibroblasts modeled by human mesenchymal stem cells (MSCs). The concentration ranges selected for each drug and investigational agent were based upon clinically achievable concentrations if the clinical Cmax of the agent was known.\nCompounds. The drugs and investigational agents: inavolisib (NSC800729), alpelisib (NSC765974), duvelisib (NSC772469), copanlisib (NSC816437), ipatasertib (NSC767898), afuresertib (NSC778305), talazoparib (NSC767125), sapanisertib (NSC764658), selumetinib (NSC741078), tovorafenib (DAY101, NSC766906), vemurafenib (NSC761431), ravoxertinib (NSC781343), sotorasib (NSC818433), MRTX1133 (NSC 836407), abemaciclib (NSC 768073), palbociclib (NSC758247), venetoclax (NSC 766270), SY5609 (NSC837396), enzalutamide (NSC755605), and darolutamide (NSC825331), were obtained from the National Cancer Institute (NCI) Developmental Therapeutics Program Chemical Repository. The FDA-approved anticancer drug set is available from the NCI Developmental Therapeutics Program. […] The stock solutions were prepared in dimethyl sulfoxide (DMSO, Sigma-Aldrich, St. Louis, MO, cat. D2650) at 800-fold the tested concentration and stored at -70 degrees C prior to their use. All drugs and investigational agents were tested over a range starting from a high concentration at or near the clinical Cmax and decreasing in half-log increments. If the clinical Cmax for an agent had not been determined, the highest concentration tested was 10 microM.\nCell Culture. All cells were maintained in an incubator at 37 degrees C and 5% CO2 with 95% humidity. The PDC lines were cultured according to standard operating procedures established by the NCI PDMR (https://pdmr.cancer.gov/sops/default.htm). All PDCs were thawed and cultured in Matrigel-coated flasks prepared with a working solution of 1X Ham's F-12 nutrient mix, without supplementation (Invitrogen, Waltham, MA, cat. 11765054), 100 U/mL penicillin-streptomycin (Invitrogen, cat. 15140122), and 2.5% Matrigel (Corning Inc., Corning, NY, cat. 354248) for the first three passages. The 354836-022-R-J1-PDC, 475296-252-R-J1-PDC, and 997726-040-R-J2-PDC lines were cultured in 6A media, which includes advanced DMEM/F-12 (Thermo Fisher Scientific, cat. 12634028), 10 mM HEPES (Thermo Fisher Scientific, cat. 15630080), 1X GlutaMAX supplement (Thermo Fisher Scientific, cat. 35050061), 0.1 mg/mL primocin (InvivoGen, San Diego, CA, cat. ant-pm-2), 10% defined fetal bovine serum, heat inactivated (HyClone Laboratories Inc., Logan, UT, cat. SH30070.03HI), 50% L-WRN conditioned media (ATCC, cat. CRL-3276), 1.25 mM N-Acetyl-L-cysteine (Sigma-Aldrich, cat. A9165), 10 mM nicotinamide (Sigma-Aldrich, cat. N0636), 1X B-27 supplement (Thermo Fisher Scientific, cat. 17504044), 1X N-2 supplement (Thermo Fisher Scientific, cat. 17502048), and 10 microM Y-27632 dihydrochloride (Tocris Bioscience, Bristol, United Kingdom, cat. 1254). The 624824-186-R-J2-PDC line was cultured in 6C/Colon 1B media, which includes all 6A media components plus 50 ng/mL human EGF recombinant protein (Thermo Fisher Scientific, cat. PHG0311). […]", "note": "pIC50: −log10 of the molar value.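 Also: spheroids exposed to agents for seven days before reading.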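 For viability, T/C in this document: percent of vehicle control luminescence where 100% = DMSO treated spheroids.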", "data": [{"smiles": "C[C@@H](NC(=O)c1ncnc(N)c1Cl)c1ncc(C(=O)Nc2cc(C(F)(F)F)c(Cl)cn2)s1", "note": "+ CC(Nc1ncnc2nc[nH]c12)c1cc2cccc(Cl)c2c(=O)n1-c1ccccc1", "values": [{"measurement": "pIC50", "setting": "second compound 0.0316 µM", "result": "< 5.00"}, {"measurement": "pIC50", "setting": "second compound 0.1 µM", "result": "< 5.00"}, {"measurement": "pIC50", "setting": "second compound 0.316 µM", "result": "< 5.00"}, {"measurement": "pIC50", "setting": "second compound 1 µM", "result": "< 5.00"}, {"measurement": "pIC50", "setting": "second compound 3.16 µM", "result": "< 5.00"}, {"measurement": "pIC50", "setting": "second compound 10 µM", "result": "< 5.00"}, {"measurement": "viability, T/C", "setting": "second compound 0.0316 µM, first compound 0.0316 µM", "result": 98.8, "unit": "%"}, {"measurement": "viability, T/C", "setting": "second compound 0.0316 µM, first compound 0.1 µM", "result": 104, "unit": "%"}, {"measurement": "viability, T/C", "setting": "second compound 0.0316 µM, first compound 0.316 µM", "result": 111, "unit": "%"}, {"measurement": "viability, T/C", "setting": "second compound 0.0316 µM, first compound 1 µM", "result": 108, "unit": "%"}, {"measurement": "viability, T/C", "setting": "second compound 0.0316 µM, first compound 3.16 µM", "result": 118, "unit": "%"}, {"measurement": "viability, T/C", "setting": "second compound 0.0316 µM, first compound 10 µM", "result": 130, "unit": "%"}, {"measurement": "viability, T/C", "setting": "second compound 0.1 µM, first compound 0.0316 µM", "result": 113, "unit": "%"}, {"measurement": "viability, T/C", "setting": "second compound 0.1 µM, first compound 0.1 µM", "result": 97.2, "unit": "%"}, {"measurement": "viability, T/C", "setting": "second compound 0.1 µM, first compound 0.316 µM", "result": 112, "unit": "%"}, {"measurement": "viability, T/C", "setting": "second compound 0.1 µM, first compound 1 µM", "result": 109, "unit": "%"}, {"measurement": "viability, T/C", "setting": "second compound 0.1 µM, first compound 3.16 µM", "result": 112, "unit": "%"}, {"measurement": "viability, T/C", "setting": "second compound 0.1 µM, first compound 10 µM", "result": 113, "unit": "%"}, {"measurement": "viability, T/C", "setting": "second compound 0.316 µM, first compound 0.0316 µM", "result": 105, "unit": "%"}, {"measurement": "viability, T/C", "setting": "second compound 0.316 µM, first compound 0.1 µM", "result": 110, "unit": "%"}, {"measurement": "viability, T/C", "setting": "second compound 0.316 µM, first compound 0.316 µM", "result": 102, "unit": "%"}, {"measurement": "viability, T/C", "setting": "second compound 0.316 µM, first compound 1 µM", "result": 118, "unit": "%"}, {"measurement": "viability, T/C", "setting": "second compound 0.316 µM, first compound 3.16 µM", "result": 112, "unit": "%"}, {"measurement": "viability, T/C", "setting": "second compound 0.316 µM, first compound 10 µM", "result": 115, "unit": "%"}, {"measurement": "viability, T/C", "setting": "second compound 1 µM, first compound 0.0316 µM", "result": 115, "unit": "%"}, {"measurement": "viability, T/C", "setting": "second compound 1 µM, first compound 0.1 µM", "result": 89, "unit": "%"}, {"measurement": "viability, T/C", "setting": "second compound 1 µM, first compound 0.316 µM", "result": 113, "unit": "%"}, {"measurement": "viability, T/C", "setting": "second compound 1 µM, first compound 1 µM", "result": 114, "unit": "%"}, {"measurement": "viability, T/C", "setting": "second compound 1 µM, first compound 3.16 µM", "result": 113, "unit": "%"}, {"measurement": "viability, T/C", "setting": "second compound 1 µM, first compound 10 µM", "result": 116, "unit": "%"}, {"measurement": "viability, T/C", "setting": "second compound 3.16 µM, first compound 0.0316 µM", "result": 112, "unit": "%"}, {"measurement": "viability, T/C", "setting": "second compound 3.16 µM, first compound 0.1 µM", "result": 98.5, "unit": "%"}, {"measurement": "viability, T/C", "setting": "second compound 3.16 µM, first compound 0.316 µM", "result": 98.3, "unit": "%"}, {"measurement": "viability, T/C", "setting": "second compound 3.16 µM, first compound 1 µM", "result": 104, "unit": "%"}, {"measurement": "viability, T/C", "setting": "second compound 3.16 µM, first compound 3.16 µM", "result": 107, "unit": "%"}, {"measurement": "viability, T/C", "setting": "second compound 3.16 µM, first compound 10 µM", "result": 104, "unit": "%"}, {"measurement": "viability, T/C", "setting": "second compound 10 µM, first compound 0.0316 µM", "result": 103, "unit": "%"}, {"measurement": "viability, T/C", "setting": "second compound 10 µM, first compound 0.1 µM", "result": 81, "unit": "%"}, {"measurement": "viability, T/C", "setting": "second compound 10 µM, first compound 0.316 µM", "result": 78.8, "unit": "%"}, {"measurement": "viability, T/C", "setting": "second compound 10 µM, first compound 1 µM", "result": 86.5, "unit": "%"}, {"measurement": "viability, T/C", "setting": "second compound 10 µM, first compound 3.16 µM", "result": 91.8, "unit": "%"}, {"measurement": "viability, T/C", "setting": "second compound 10 µM, first compound 10 µM", "result": 85.1, "unit": "%"}]}]}
